Assay results published in PMC4882497 (British Journal of Pharmacology, 2016).
pEC50: −log10 of the molar value.

How the values were obtained:
hY2 = biological target: T1, hY2 (Homo sapiens, UniProt P49146); test: Inositol phosphate accumulation, COS-7 cells expressing hY2 and chimeric Gi/q protein; format: cell-based; settings: agonist, inositol phosphate turnover, COS7 cells, 1 h stimulation, duplicate, at least two experiments
T1 construct: expressed in transfected cells
T1 sequence (P49146 1-381): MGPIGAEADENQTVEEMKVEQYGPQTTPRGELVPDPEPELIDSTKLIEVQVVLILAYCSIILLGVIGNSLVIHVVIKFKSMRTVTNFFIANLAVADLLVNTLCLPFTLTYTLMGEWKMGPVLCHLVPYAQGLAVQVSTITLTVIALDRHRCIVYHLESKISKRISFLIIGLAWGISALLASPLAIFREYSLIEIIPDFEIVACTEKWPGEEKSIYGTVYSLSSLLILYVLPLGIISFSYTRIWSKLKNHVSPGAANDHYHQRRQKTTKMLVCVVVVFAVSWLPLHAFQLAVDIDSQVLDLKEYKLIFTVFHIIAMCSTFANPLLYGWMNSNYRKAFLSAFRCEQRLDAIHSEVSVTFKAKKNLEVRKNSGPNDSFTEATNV
Description: (§1) Agonist activity at Y receptors was assessed by measuring inositol phosphate accumulation in COS‐7 cells, as described previously (Hofmann et al., 2013). […] Stably transfected COS‐7‐hYR‐GαΔ6qi4myr cells were cultivated in DMEM with 4.5 g·L^−1 glucose and L‐glutamine supplemented with 10% (v/v) heat‐inactivated FCS, 100 units mL^−1 penicillin, 100 μg mL^−1 streptomycin, 1.5 mg mL^−1 G418‐sulfate and 146 μg mL^−1 hygromycin B in a humidified atmosphere at 37°C and 5% CO2. COS 7 cells were a gift from Prof. Dr. Torsten Schöneberg (Leipzig University). Stable cell lines were prepared as described in Mäde et al., 2014. Cells were grown in 48‐well plates (90 000 cells in 500 μL per well) for 24 h. […] Cells were lysed applying 0.1 M sodium hydroxide for 5 min at room temperature followed by neutralization with 0.2 M formic acid. […] Eluates were diluted with scintillation cocktail Ultima Gold (Perkin Elmer) and measured by a scintillation counter (Tri‐Carb 2910 TR from PerkinElmer). […] For each compound, global mean EC50 and pEC50 ± SEM (n ≥ 2) were calculated from the entire normalized concentration‐response curves by nonlinear regression using GraphPad Prism 5.0. […]
(§2) Activity at the human receptors, hY1, hY2, hY4 and hY5, was measured by accumulation of IP3, after channeling cAMP inhibition to phospholipase C activity, in COS7 cells.

hY1 = biological target: T2, hY1 (Homo sapiens, UniProt P25929); test: Inositol phosphate accumulation, COS-7 cells expressing hY1 and chimeric Gi/q protein; format: cell-based; settings: agonist, inositol phosphate turnover, COS7 cells, 1 h stimulation, duplicate, at least two experiments
T2 construct: expressed in transfected cells
T2 sequence (P25929 1-384): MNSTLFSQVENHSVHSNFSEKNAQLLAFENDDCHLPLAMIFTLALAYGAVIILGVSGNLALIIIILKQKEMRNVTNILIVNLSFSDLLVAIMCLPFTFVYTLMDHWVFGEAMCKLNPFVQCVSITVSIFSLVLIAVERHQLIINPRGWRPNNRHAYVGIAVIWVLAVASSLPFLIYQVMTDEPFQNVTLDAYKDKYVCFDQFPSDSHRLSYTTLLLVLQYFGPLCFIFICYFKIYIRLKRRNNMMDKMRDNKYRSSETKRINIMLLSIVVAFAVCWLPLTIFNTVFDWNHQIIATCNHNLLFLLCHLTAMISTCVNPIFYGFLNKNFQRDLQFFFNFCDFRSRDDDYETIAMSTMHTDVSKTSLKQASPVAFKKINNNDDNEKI
Description: as §1, §2

hY4 = biological target: T3, hY4 (Homo sapiens, UniProt P50391); test: Inositol phosphate accumulation, COS-7 cells expressing hY4 and chimeric Gi/q protein; format: cell-based; settings: agonist, inositol phosphate turnover, COS7 cells; pEC50 ± SEM, n ≥ 2
T3 construct: expressed in transfected cells
Description: as §1, §2

hY5 = biological target: T4, hY5 (Homo sapiens, UniProt Q15761); test: Inositol phosphate accumulation, COS-7 cells expressing hY5 and chimeric Gi/q protein; format: cell-based; settings: agonist, inositol phosphate turnover, COS7 cells; pEC50 ± SEM, n ≥ 2
T4 construct: expressed in transfected cells
T4 sequence (Q15761 1-445): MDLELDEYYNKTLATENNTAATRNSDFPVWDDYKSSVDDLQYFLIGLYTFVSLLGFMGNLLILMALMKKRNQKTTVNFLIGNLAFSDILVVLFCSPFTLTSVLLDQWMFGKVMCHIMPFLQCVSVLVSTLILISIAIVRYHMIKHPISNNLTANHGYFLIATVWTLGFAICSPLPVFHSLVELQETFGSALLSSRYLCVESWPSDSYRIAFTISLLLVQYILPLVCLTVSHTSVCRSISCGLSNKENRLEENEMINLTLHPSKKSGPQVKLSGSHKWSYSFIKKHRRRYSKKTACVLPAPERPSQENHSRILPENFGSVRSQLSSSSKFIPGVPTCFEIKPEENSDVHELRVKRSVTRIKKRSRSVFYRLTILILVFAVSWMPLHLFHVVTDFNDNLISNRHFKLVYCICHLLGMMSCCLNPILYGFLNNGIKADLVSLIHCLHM
Description: as §1, §2

male WT mice = test: Motor activity over 24 h in a novel cage; format: in vivo, mouse; settings: 1 mg/kg i.p., 24 h in novel cage, vs saline, n = 8 vs 7
Description: Male WT mice were injected i.p. with either the long‐acting Y4 receptor agonist [K^30(PEG2)]hPP2‐36 (1mg kg^−1) or saline. Activity measurements were performed for 24 h in a novel cage. Mice were single‐housed in standard cages with food and water ad libitum. Movements of the mice were detected by an infrared sensor throughout light and dark phase (TSE LabMaster InfraMot, Bad Homburg, Germany).
To exclude non‐specific effects of [K^30(PEG2)]hPP2‐36 on motor activity that may compromise freezing detection during extinction training, we first injected male WT mice i.p. with [K^30(PEG2)]hPP2‐36 or saline and subsequently observed the activity of the mice for 24 h in a novel cage (Supporting Information Figure S4).

[1] = system: orexin neurons in the lateral hypothalamus; test: c-Fos/orexin dual-labelling immunohistochemistry in lateral hypothalamus after fear extinction, WT mice; format: in vivo, mouse; settings: i.p. 60 min before fear extinction, fasted 16 h, brains removed 90 min after testing, n = 7 per group
Description: A separate group of WT and Y4KO mice were fasted overnight (16 h), injected i.p. with [K^30(PEG2)]hPP2‐36 or saline and subjected to extinction training 60 min later. Using a cryostat 40 μm coronal, free‐floating sections were cut for subsequent immunohistochemistry.
Immunohistochemical analysis was performed on free‐floating, PFA‐fixed, 40 μm thick coronal sections using indirect peroxidase labelling, as described previously (Tasan et al., 2011). The following antisera were used: polyclonal rabbit anti‐c‐Fos (1:20 000 PC38, Calbiochem) and polyclonal rabbit anti‐pan‐orexin (1:1000, Abcam ab6214, Lot:GR63996‐1). In brief, coronal sections were incubated free‐floating in 10% normal goat serum (Biomedica, Vienna, Austria) in Tris–HCl buffered saline (TBS; 50 mM, pH 7.2) for 90 min, followed by incubation with primary antiserum. […]
The number of c‐Fos positive cells was obtained bilaterally from six matched sections per animal showing the lateral hypothalamus, at a magnification of 400×, in multiple separate fields and mean values were calculated for each mouse. Results are presented as number of immunoreactivity positive cells per section and expressed as mean ± SEM. […]

WT mice = test: Fear acquisition and consolidation after peripheral injection; format: in vivo, mouse; settings: vs saline, n = 6 per group
Description: (§3) Naïve WT (C57Bl/6NCrl) or Y4KO mice were used for fear conditioning experiments. Fear conditioning experiments were conducted during the light phase of the light/dark cycle in sound proof chambers (TSE Systems, Bad Homburg, Germany) by repetitive exposure of the mice to an auditory stimulus co‐terminating with a foot shock, as described in detail previously (Verma et al., 2012). Fear conditioning and context testing were performed in context A consisting of a transparent acrylic mouse conditioning chamber with a metal grid floor. The whole set‐up was enclosed by a sound attenuating chamber. Illumination was 80 lux, and chambers were cleaned with 70% ethanol. Fear recall as well as fear extinction and extinction recall was performed in a different context consisting of a dimly illuminated (10 lux) chamber with black, smooth walls and the floor cleaned with 1% acetic acid (context B).
(§4) On day 1 (context A), mice were subjected to a differential fear conditioning paradigm in which one auditory stimulus served as a CS because it was explicitly paired (CS+, 30 s white noise, 80 dB) with the US, whereas the second auditory stimulus was not paired (CS−, 30 s, 3.5 kHz, 80 dB). All animals received five CS− and five CS+ in an alternating order, starting with a CS+. The US co‐terminating with each CS+ consisted of a foot shock. […] On days 2 and 3, mice were tested for their context (context A for 15 min) and CS‐related fear memory (context B) respectively.
Fear conditioning was performed in WT (C57Bl6/NCrl) and Y4KO mice on day 1 (context A) as described in the previous paragraph. To avoid interference with postprandial released PP, mice were fasted overnight (16 h) before injection of the drug followed by fear extinction training. Water was freely available during the fasting period. Based on our previous results, a 16 h fasting period was required to reach our experimental aim (Verma et al., 2016). A control experiment was performed without food restriction (non‐fasting). [K^30(PEG2)]hPP2‐36 (1 mg·kg^−1) or saline was injected i.p. 60 min before behavioural testing, as indicated in the timeline of the respective experiments. For extinction experiments, mice were divided into two groups, receiving an i.p. injection of either the long‐acting Y4 receptor agonist [K^30(PEG2)]hPP2‐36 (1 mg·kg^−1) or saline in controls followed after 60 min by extinction training (extinction 1; 5 CS− and 25 CS+, context B). Mice were then tested on day 3 for extinction recall under drug‐free conditions by exposure to five CS+ (context B). To exclude any bias of group selection, another extinction session was performed on day 4 (extinction 2; 25 CS+, context B) followed by extinction recall on day 5 (five CS+; context B), both under drug‐free conditions. […]

Y4KO mice = test: Cued fear extinction after peripheral injection, Y4KO mice; format: in vivo, mouse; settings: 1 mg/kg i.p. 60 min before extinction, fasted 16 h, vs saline, n = 10 per group
Description: as §3
On day 1 (context A), mice were subjected to a differential fear conditioning paradigm in which one auditory stimulus served as a CS because it was explicitly paired (CS+, 30 s white noise, 80 dB) with the US, whereas the second auditory stimulus was not paired (CS−, 30 s, 3.5 kHz, 80 dB). All animals received five CS− and five CS+ in an alternating order, starting with a CS+. The US co‐terminating with each CS+ consisted of a foot shock. […]

WT (C57Bl/6NCrl) mice = test: Cued fear extinction after peripheral injection, WT mice; format: in vivo, mouse
Description: as §3, §4
Fear conditioning was performed in WT (C57Bl6/NCrl) and Y4KO mice on day 1 (context A) as described in the previous paragraph. To avoid interference with postprandial released PP, mice were fasted overnight (16 h) before injection of the drug followed by fear extinction training. Water was freely available during the fasting period. Based on our previous results, a 16 h fasting period was required to reach our experimental aim (Verma et al., 2016). A control experiment was performed without food restriction (non‐fasting). [K^30(PEG2)]hPP2‐36 (1 mg·kg^−1) or saline was injected i.p. 60 min before behavioural testing, as indicated in the timeline of the respective experiments. For extinction experiments, mice were divided into two groups, receiving an i.p. injection of either the long‐acting Y4 receptor agonist [K^30(PEG2)]hPP2‐36 (1 mg·kg^−1) or saline in controls followed after 60 min by extinction training (extinction 1; 5 CS− and 25 CS+, context B). Mice were then tested on day 3 for extinction recall under drug‐free conditions by exposure to five CS+ (context B). To exclude any bias of group selection, another extinction session was performed on day 4 (extinction 2; 25 CS+, context B) followed by extinction recall on day 5 (five CS+; context B), both under drug‐free conditions. Spontaneous recovery (day 12) and renewal (day 13) were tested by exposing the mice to five CS+ in contexts B and A respectively.

[2] = i.p. immediately after fear acquisition

T3 sequence (P50391 whole entry): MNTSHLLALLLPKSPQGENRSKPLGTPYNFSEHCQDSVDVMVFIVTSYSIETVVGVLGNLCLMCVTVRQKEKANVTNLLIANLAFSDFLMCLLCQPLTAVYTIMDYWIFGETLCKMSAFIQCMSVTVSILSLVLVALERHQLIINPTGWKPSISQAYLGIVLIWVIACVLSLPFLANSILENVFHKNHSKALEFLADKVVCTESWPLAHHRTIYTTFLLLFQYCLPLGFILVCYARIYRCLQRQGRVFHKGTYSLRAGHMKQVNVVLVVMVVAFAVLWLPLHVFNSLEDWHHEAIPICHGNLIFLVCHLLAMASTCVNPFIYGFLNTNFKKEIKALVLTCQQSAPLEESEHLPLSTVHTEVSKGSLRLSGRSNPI

| Substance | pEC50 (hY2) | pEC50 (hY1) | hY4 pEC50 (hY4) | hY5 pEC50 (hY5) | general motor activity (male WT mice) | percentage of cFos-positive orexin neurons in the lateral hypothalamus [1] | context fear after injection before fear acquisition (WT mice; i.p. 60 min before fear acquisition, 16 h fasting, tested 24 h later) | CS-induced fear after injection before fear acquisition (WT mice; i.p. 60 min before fear acquisition, 16 h fasting, tested 48 h later) | CS-induced freezing after injection immediately after fear acquisition (consolidation) (WT mice; [2]) | context fear after injection immediately after fear acquisition (consolidation) (WT mice; [2]) | cued fear extinction (freezing to CS) (Y4KO mice) | cued fear extinction learning (freezing to CS) (WT (C57Bl/6NCrl) mice; 1 mg/kg i.p. 60 min before extinction training, fasted 16 h, male WT mice, vs saline) | freezing at CS13 during extinction (WT (C57Bl/6NCrl) mice; 1 mg/kg i.p. 60 min before extinction, fasted 16 h, WT mice, n = 10 per group) | freezing during extinction recall (WT (C57Bl/6NCrl) mice; 1 mg/kg i.p. before extinction 1, fasted 16 h, recall 24 h later drug-free and non-fasting, male WT mice, vs saline) | freezing during spontaneous recovery (WT (C57Bl/6NCrl) mice; 1 mg/kg i.p. before extinction training 1 (day 2), fasted 16 h, tested day 12, context B, male WT mice, n = 7 per group) | freezing during renewal (WT (C57Bl/6NCrl) mice; 1 mg/kg i.p. before extinction training 1 (day 2), fasted 16 h, tested day 13, context A, male WT mice, n = 7 per group) | cued fear extinction learning, non-fasted (WT (C57Bl/6NCrl) mice; i.p. 60 min before extinction training, non‐fasted WT mice, vs saline, n = 6 per group) |
| --- | --- | --- | --- | --- | --- | --- | --- | --- | --- | --- | --- | --- | --- | --- | --- | --- | --- |
| [K^30(PEG2)]hPP2‐36 (H-PLEPVYPGDNATPEQMAQYAADLRRYINK(MeO‑PEG 2 kDa)LTRPRY-NH2) [lysine 30 carries 2000 Da MeO-PEG] | < 6.00 | < 6.00 | 8.0 ± 0.2 | 6.4 ± 0.1 | – | – | – | – | – | – | – | – | – | – | – | – | – |
| [K^30(PEG2)]hPP2‐36 | – | – | – | – | did not influence general motor activity | specifically reduced | did not alter | did not alter | did also not change | did also not change | did not respond | significantly facilitated extinction learning | reduced freezing at CS13 | reduction of freezing during extinction recall | reduced freezing | reduced freezing | did not facilitate extinction learning |
